Test results reported in US5756527A, “Imidazole derivatives useful as modulators of multi drug resistances” (Ontogen Corporation, priority 1997, dated 1998).

Legend:
CEM/VLB1000 [1] = test: Cytotoxicity potentiation (alamar blue) of vinblastine in multidrug-resistant cells; assay type: cell-based; conditions: midpoint of minimum and maximum cytotoxicity induced by 3-5 μg/mL vinblastine and compound, 48 h
Procedure: Multidrug-resistant cell lines are easily obtainable for in vitro determination of drug sensitization by compounds of the present invention. In vitro potentiation of antineoplastic cytotoxicity by the imidazole derivatives of the present invention was measured in both CEM/VLB1000 and SK/VLB1000 cell lines. The multidrug resistant cell lines were obtained from Dr. Victor Ling, Ontario Cancer Institute, Toronto, Canada. The CEM/VLB 1000 cell line was maintained as a suspension in minimum essential medium supplemented with 10% fetal bovine serum in a humidied atmosphere of 95% air and 5% CO2 while the SK/VLB 1000 cell line was maintained as adherent cells using the identical medium conditions as the CEM cells. The CEM/VLB 1000 cells were seeded at a density of 5×10^4 cells/well in a 96 well microtiter plate while the SK/VLB 1000 cell line was seeded at a density of 2,500 cells/well after trypsinization. Vinblastine (5 μg/mL, for the CEM cells) or Taxol (3 μg/mL, for the SK cells) and compound (0.01 to 50 μM) were added directly to the wells. After an incubation of 48 hours in presence of drug, alamar blue (B. Page et al., Int. J. Oncol. 3: 473-476, 1993) was added (10 μL to the 200 μL cell suspension) for a period of 24 hours after which the fluorescence (excitation=530 nm, emission=590 nm) was read for each well using a "CytoFluor" microtiter fluorometer plate reader. This assay measures the effective concentration of compound necessary to enhance the cytotoxicity (EC50) of vinblastine in the MDR cell line.
^1 Values presented are the midpoint (EC50) of the minimum and
maximum cytotoxicity induced by 3-5 μg/mL vinblastine and the specific
compound of the present invention.

CEM/VLB1000 [2] = test: [3H]-vinblastine (VLB) accumulation assay; assay type: cell-based; conditions: midpoint of minimum and maximum increase in accumulation of 3H-vinblastine (275 nM), 3 hours at 37° C.
Procedure: ^3 H-vinblastine accumulation was also measured in the CEM/VLB1000 cell line. Corning Easy-Wash 96 well plates were pretreated with PBS and 1% BSA for 60 minutes and then removed. CEM/VLB1000 cells were seeded at 2×10^5, 40 μL volume. Plates were incubated at 37° C. for 30-60 minutes prior to use. The reference reversing agent, verapamil, or the compound of the present invention was added to the well followed by addition of media containing ^3 H-vinblastine (final concentration=275nM). Plates were allowed to incubate for 3 hours at 37° C. Cells were harvested onto pretreated Wallace filtermats A (pretreated with 0.1% polyethyleneimine) using a TomTek harvester-96. After filtering, the filtermats were allowed to dry completely. Meltix B scintillant was then added to the filtermats. The filters were then placed in a 90° C. oven for approximately 3-5 minutes and then removed. Scintillant was allowed to solidify on the filtermats. Filtermats were then placed in sample bags and read on a Wallace BetaPlate scintillation counter. The effects of compounds of the present invention in the cytotoxicity potentiation assays and vinblastine (VLB) accumulation assay are given in the Table below:
^2 Values presented are the midpoint (EC50) of the minimum and
maximum increase in accumulation of ^3 Hvinblastine caused by the
specific compound of the present invention.

Row | Structure (SMILES) | EC50 (CEM/VLB1000 [2]) [nM] | EC50 (CEM/VLB1000 [1]) [nM]
1 | CNc1ccc(-c2[nH]c(-c3ccc(/C=C/C(=O)OC)cc3)nc2-c2ccc(NC(C)(C)C)cc2)cc1 [Example 48, 2-[4-(trans-methylpropenoate)phenyl]-4-[(4-N-t-butylamino)phenyl]-5-[(4-N-methylamino)phenyl] imidazole] | 1200 | 240
2 | CCN(CC)c1ccc(-c2nc(-c3ccc(/C=C/C(=O)OC)cc3)[nH]c2-c2ccc(N(CC)CC)cc2)cc1 [Example 49, 2-[4-(trans-methylpropenoate)phenyl]-4,5-bis(4-N,N-diethylaminophenyl) imidazole] | 5000 | 675
3 | COC(=O)/C=C/c1cccc(-c2nc(-c3ccc(N(C)C)cc3)c(-c3ccc(N(C)C)cc3)[nH]2)c1 [Example 54, 2-[3-(trans-methylpropenoate)phenyl]-4,5-bis(4-N,N-dimethylaminophenyl) imidazole] | 4800 | 256
4 | COC(=O)/C=C/c1ccc(OC)c(-c2nc(-c3ccc(N(C)C)cc3)c(-c3ccc(N(C)C)cc3)[nH]2)c1 [Example 56, 2-[2-methoxy-5-(trans-methylpropenoate)phenyl]-4,5-bis(4-N,N-dimethylaminophenyl) imidazole] | 2800 | 126
5 | COC(=O)/C=C/c1cc(-c2nc(-c3ccc(N(C)C)cc3)c(-c3ccc(N(C)C)cc3)[nH]2)ccc1F [Example 58, 2-[4-fluoro-3-(trans-methylpropenoate)phenyl]-4,5-bis(4-N,N-dimethylaminophenyl) imidazole] | 2000 | 134
6 | COC(=O)/C=C/c1ccc(-c2nc(-c3ccc(N(C)C)cc3)c(-c3ccc(N(C)C)cc3)[nH]2)c(F)c1 [Example 60, 2-[2-fluoro-4-(trans-methylpropenoate)phenyl]-4,5-bis(4-N,N-dimethylaminophenyl) imidazole] | 3000 | 613
7 | COC(=O)/C=C/c1ccc(-c2nc(-c3ccc(N(C)C)cc3)c(-c3ccc(N(C)C)cc3)[nH]2)s1 [Example 61] | 1800 | 217
8 | COCCCc1ccc(-c2nc(-c3ccc(N(C)C)cc3)c(-c3ccc(N(C)C)cc3)[nH]2)cc1 [Example 63, 2-[4-(3-methoxypropyl)phenyl]-4,5-bis[(4-N,N-dimethylamino)phenyl] imidazole] | 1100 | 205
9 | COc1ccc(/C=C/C(=O)OC(C)C)cc1-c1nc(-c2ccc(N(C)C)cc2)c(-c2ccc(N(C)C)cc2)[nH]1 [Example 64, 2-[2-methoxy-5-(trans-i-propylpropenoate)phenyl]-4,5-bis(4-N,N-dimethylaminophenyl) imidazole] | 6000 | 390

The next lines start with results.

Row | EC50 (CEM/VLB1000 [2]) [nM] | Structure (SMILES) | EC50 (CEM/VLB1000 [1]) [nM]
10 | 870 | CNc1ccc(-c2[nH]c(-c3ccc(/C=C/C(=O)OC)cc3)nc2-c2ccc(NC(C)C)cc2)cc1 [Example 47, 2-[4-(trans-methylpropenoate)phenyl]-4-[(4-N-i-propylamino)phenyl]-5-[(4-N-methylamino)phenyl] imidazole] | 194
11 | 4900 | CCN(CC)c1ccc(-c2nc(-c3ccc(/C=C/C(=O)OC)cc3)[nH]c2-c2ccc(N(C)C)cc2)cc1 [Example 50, 2-[4-(trans-methylpropenoate)phenyl]-4-[(4-N,N-diethylamino)phenyl]-5-[(4-N,N-dimethylamino)phenyl] imidazole] | 225
12 | 2600 | COC(=O)/C=C/c1ccc(-c2nc(-c3ccc(N)cc3)c(-c3ccc(N(C)C)cc3)[nH]2)cc1 [Example 51, 2-[4-(trans-methylpropenoate)phenyl]-4-[(4-N,N-dimethylamino)phenyl]-5-(4-aminophenyl) imidazole] | 480
13 | 2600 | CCN(CC)c1ccc(-c2[nH]c(-c3ccc(/C=C/C(=O)OC)cc3)nc2-c2ccc(N)cc2)cc1 [Example 52, 2-[4-(trans-methylpropenoate)phenyl]-4-[(4-N,N-diethylamino)phenyl]-5-(4-aminophenyl) imidazole] | 275
14 | 6500 | CNc1ccc(-c2nc(-c3ccc(/C=C/C(=O)OC)cc3)[nH]c2-c2ccc(F)cc2)cc1 [Example 53, 2-[4-(trans-methylpropenoate)phenyl]-4-[(4-N-methylamino)phenyl]-5-(4-fluorophenyl) imidazole] | 630
15 | 6000 | COC(=O)/C=C/c1cc(-c2nc(-c3ccc(N(C)C)cc3)c(-c3ccc(N(C)C)cc3)[nH]2)ccc1OC [Example 55, 2-[4-methoxy-3-(trans-methylpropenoate)phenyl]-4,5-bis(4-N,N-dimethylaminophenyl) imidazole] | 370
16 | 2800 | COC(=O)/C=C/c1cc(-c2nc(-c3ccc(N(C)C)cc3)c(-c3ccc(N(C)C)cc3)[nH]2)cc(OC)c1OC [Example 57, 2-[3,4-dimethoxy-5-(trans-methylpropenoate)phenyl]-4,5-bis(4-N,N-dimethylaminophenyl) imidazole] | 453
17 | 3200 | CNc1ccc(-c2[nH]c(-c3ccc(F)c(/C=C/C(=O)OC)c3)nc2-c2ccc(N(C)C)cc2)cc1 [Example 59, 2-[4-fluoro-3-(trans-methylpropenoate)phenyl]-4-[(4-N,N-dimethylamino)phenyl]-5-[(4-N-methylamino)phenyl] imidazole] | 570
18 | 3000 | COC(=O)/C=C/c1csc(-c2nc(-c3ccc(N(C)C)cc3)c(-c3ccc(N(C)C)cc3)[nH]2)c1 [Example 62, 2-[3-(trans-methylpropenoate)thienyl]-4,5-bis[(4-N,N-dimethylamino)phenyl] imidazole] | 320
19 | 4000 | CC(C)OC(=O)/C=C/c1ccc(-c2nc(-c3ccc(N(C)C)cc3)c(-c3ccc(N(C)C)cc3)[nH]2)s1 [Example 65, 2-[3-(trans-i-propylpropenoate)thienyl]-4,5-bis[(4-N,N-dimethylamino)phenyl] imidazole] | 211
20 | 10500 | CN(C)c1ccc(-c2nc(-c3ccc(/C=C/C(=O)OCc4ccccc4)cc3)[nH]c2-c2ccc(N(C)C)cc2)cc1 [Example 67, 2-[4-(trans-benzylpropenoate)phenyl]-4,5-bis[(4-N,N-dimethylamino)phenyl] imidazole] | 330
21 | > 30000 | CN(C)c1ccc(-c2nc(-c3ccc(/C=C/C(=O)OCCc4ccccc4)cc3)[nH]c2-c2ccc(N(C)C)cc2)cc1 [Example 68, 2-[4-(trans-phenethylpropenoate)phenyl]-4,5-bis[(4-N,N-dimethylamino)phenyl] imidazole] | 1200
